Assay [1] has as its target T1, ErbB2 or EGFR.
T1 construct: enzymes purified from a baculovirus expression system; Reagent production was conducted essentially as described in Brignola, P. S., et al, (2002) J. Biol. Chem. 277(2): 1576-1585
As to the kind of experiment: ErbB family substrate phosphorylation enzyme assay (HTRF), Method A or Method B. The following applies: Method B: enzyme mix pre-incubated with compound 1 hour at 20° C., started with substrate mix. It counts as biochemical. An outline of the steps: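 Baculovirus-expressed EGFR or ErbB2 (0.8 or 10 nM in enzyme mix) phosphorylates biotinylated Peptide C with 20 µM ATP and 0.8 µM peptide (substrate-mix levels), MnCl2, pH 7.5. Reaction ran 90 min at 20 °C with EDTA stop and HTRF anti-phosphotyrosine read. Method A: enzyme added last; Method B: 1 h enzyme–compound preincubation.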

Assay [2] deals with BT474 and HN5 tumor cell lines. As to the kind of experiment: Celltiter Glo growth inhibition assay (cellular Method B). It counts as cell-based. The following applies: Homo sapiens, BT-474, 72 h, 3 days, read-out: Activity (Method): growth inhibition IC50 class. The method, then:
(§1) Human breast tumor cells (BT474) were cultured in RPMI, (Invitrogen, 22400) containing 10% fetal bovine serum (FBS). Human head and neck tumor cells (HN5) were cultured in low glucose DMEM (Invitrogen, 12320) containing 10% FBS. Human colon tumor cells (Colo205) were cultured in DMEM (Invitrogen, 10564) containing 10% FBS. All cell lines were maintained at 37° C. in a humidified 5% CO2, 95% air incubator. Cells were harvested using trypsin/EDTA, counted using a haemocytometer, and plated in 30 microliters of the appropriate media described above, at the following densities, in a half area, black-walled, 96-well tissue culture plate (Corning 3882): BT474 3,000 cells/well, HN5 500 cells/well and Colo205 cells, 3,000 cells/well. The next day, compounds were diluted in DMEM containing […] gentamicin, from 10 mM stock solutions in DMSO. 30 microliters/well of these dilutions were added to the 30 microliters/well of media currently on the cell plates. Medium containing 0.6% DMSO was added to control wells. The final concentration of DMSO in all wells was 0.3%. Cells were incubated at 37° C., 5% CO2 for 3 days. Cell biomass was estimated using Celltiter Glo (Promega G7571). Briefly, plates were removed from the incubator and allowed to equilibrate to rt for 30 minutes. 60 microliters of Celltiter Glo reagent were added to each well of the treated cells and plates were shaken on an orbital plate shaker for 2 min. Plates were incubated without shaking for 30 more min and read in a luminometer with an integration time of 0.5 seconds per well. Percent inhibition of cell growth was calculated relative to vehicle treated control wells. Concentration of compound that inhibits 50% of vehicle control cell growth (IC50) was interpolated using nonlinear regression (Levenberg-Marquardt) and the equation, y=Vmax*(1−(x/(K+x)))+Y2, where “K” was equal to the IC50.
(In general: Cellular ATP, detected with luciferase, serves as a proxy for viable cell number.)

Assay [3] has as its system Colo205 tumor cell lines. As to the kind of experiment: Celltiter Glo growth inhibition assay (cellular Method B), Colo205. The assay is classed as cell-based. The conditions noted are these: Homo sapiens, COLO 205, 72 h, 3 days, read-out: Activity (Method): growth inhibition IC50 class. How it is done: as §1

Molecules are shown by their SMILES.

As a reminder, the IC50 is the midpoint of a concentration-inhibition curve. In the case of `CN(C)CCNCc1cccc(Nc2nccc(-c3c(-c4cccc(NC(=O)c5c(F)cccc5F)c4)nn4ccccc34)n2)c1` [Example 185, N-{3-[3-(2-{[3-({[2-(Dimethylamino)ethyl]amino}methyl)phenyl]-amino}-4-pyrimidinyl)pyrazolo[1,5-a]pyridin-2-yl]phenyl}-2,6-difluorobenzamide], in assay [1], the “Activity (Method): pIC50 class against ErbB2 or EGFR” value (from here on “Activity (Method): pIC50 class”) is given as “+++ (B) (at least one pIC50 measurement of greater than 7 against either ErbB2 or EGFR)”. The IC50 in assay [2] was below 100 nM; in assay [3], above 1000 nM.

Take `CN1CCc2ccc(Nc3nccc(-c4c(-c5cccc(NC(=O)c6c(F)cccc6F)c5)nn5cc(F)ccc45)n3)cc2C1` [Example 173, 2,6-Difluoro-N-[3-(6-fluoro-3-{2-[(2-methyl-1,2,3,4-tetrahydro-7-isoquinolinyl)amino]-4-pyrimidinyl}pyrazolo[1,5-a]pyridin-2-yl)phenyl]benzamide]: the “Activity (Method): pIC50 class” value in assay [1] is on record as “+++ (B) (at least one pIC50 measurement of greater than 7 against either ErbB2 or EGFR)”. For the same compound, the IC50 was below 100 nM in assay [2] and above 1000 nM in assay [3].

For the compound `O=C(Nc1cccc(-c2nn3cc(C(F)(F)F)ccc3c2-c2ccnc(Nc3cccc(F)c3)n2)c1)c1c(F)cccc1F` [Example 191, 2,6-Difluoro-N-{3-[3-{2-[(3-fluorophenyl)amino]-4-pyrimidinyl}-6-(trifluoromethyl)pyrazolo[1,5-a]pyridin-2-yl]phenyl}benzamide], in assay [1], the “Activity (Method): pIC50 class” value is given as “++ (B) (at least one pIC50 measurement greater than 6 against either ErbB2 or EGFR but no measurement greater than pIC50 of 7)”. Besides, the IC50 in assay [2] and in assay [3] was above 1000 nM in each case.

In the case of `COc1ccc(Nc2nccc(-c3c(-c4cccc(NC(=O)c5c(F)cccc5F)c4)nn4ccccc34)n2)cc1OCCCN(C)C.O=CO` [Example 165, N-{3-[3-(2-{[3-{[3-(Dimethylamino)propyl]oxy}-4-(methyloxy)-phenyl]amino}-4-pyrimidinyl)pyrazolo[1,5-a]pyridin-2-yl]phenyl}-2,6-difluorobenzamide formic acid salt], in assay [1], the “Activity (Method): pIC50 class” value is given as “+++ (B) (at least one pIC50 measurement of greater than 7 against either ErbB2 or EGFR)”. Also, the IC50 in assay [2] was below 100 nM; in assay [3] it was above 1000 nM.

Consider `CN1CCN(CCCOc2ccc(Nc3nccc(-c4c(-c5cccc(NC(=O)c6c(F)cccc6F)c5)nn5ccccc45)n3)cc2Cl)CC1` [Example 164, N-[3-(3-{2-[(3-chloro-4-{[3-(4-methyl-1-piperazinyl)propyl]oxy}-phenyl)amino]-4-pyrimidinyl}pyrazolo[1,5-a]pyridin-2-yl)phenyl]-2,6-difluorobenzamide], for which the “Activity (Method): pIC50 class” value in assay [1] was “+++ (B) (at least one pIC50 measurement of greater than 7 against either ErbB2 or EGFR)”. In addition, the values for the IC50 in assay [2] and in assay [3] were below 100 nM and above 1000 nM, respectively.

For the compound `CS(=O)(=O)NCCOc1ccc(Nc2nccc(-c3c(-c4cccc(NC(=O)c5c(F)cccc5F)c4)nn4ccccc34)n2)cc1Cl` [Example 163, N-{3-[3-(2-{[3-Chloro-4-({2-[(methylsulfonyl)amino]ethyl}-oxy)phenyl]amino}-4-pyrimidinyl)pyrazolo[1,5-a]pyridin-2-yl]phenyl}-2,6-difluorobenzamide], in assay [1], the “Activity (Method): pIC50 class” value is on record as “+++ (B) (at least one pIC50 measurement of greater than 7 against either ErbB2 or EGFR)”. In addition, the IC50 in assay [2] and in assay [3] was below 100 nM in each case.

Consider `CS(=O)(=O)Cc1cccc(Nc2nccc(-c3c(-c4cccc(NC(=O)c5c(F)cccc5F)c4)nn4ccccc34)n2)c1` [Example 135, 2,6-Difluoro-N-(3-{3-[2-({3-[(methylsulfonyl)methyl]phenyl}amino)-4-pyrimidinyl]pyrazolo[1,5-a]pyridin-2-yl}phenyl)benzamide], for which the “Activity (Method): pIC50 class” value in assay [1] is given as “+++ (B) (at least one pIC50 measurement of greater than 7 against either ErbB2 or EGFR)”. Moreover, the IC50 in assay [2] is below 100 nM; in assay [3], above 1000 nM.

Turning to `O=C(Nc1cccc(-c2nn3ccccc3c2-c2nc(Nc3cccc(F)c3)ncc2F)c1)c1c(F)cccc1F` [Example 202, 2,6-difluoro-N-[3-(3-{5-fluoro-2-[(3-fluorophenyl)amino]-4-pyrimidinyl}pyrazolo[1,5-a]pyridin-2-yl)phenyl]benzamide], in assay [1], the “Activity (Method): pIC50 class” value is “++ (B) (at least one pIC50 measurement greater than 6 against either ErbB2 or EGFR but no measurement greater than pIC50 of 7)”. The IC50 is 100 to 1000 nM in assay [2] and above 1000 nM in assay [3].

As to `CN(C)CCOc1cccc(Nc2nccc(-c3c(-c4cccc(NC(=O)c5c(F)cccc5F)c4)nn4cccc(F)c34)n2)c1` [Example 168, N-[3-(3-{2-[(3-{[2-(Dimethylamino)ethyl]oxy}phenyl)amino]-4-pyrimidinyl}-4-fluoropyrazolo[1,5-a]pyridin-2-yl)phenyl]-2,6-difluorobenzamide], the “Activity (Method): pIC50 class” value in assay [1] is listed as “+++ (B) (at least one pIC50 measurement of greater than 7 against either ErbB2 or EGFR)”. Besides, the IC50 in assay [2] is below 100 nM; in assay [3], above 1000 nM.

As to `O=C(Nc1cccc(-c2nn3cccc(F)c3c2-c2ccnc(Nc3cccc(CN4CCCC4)c3)n2)c1)c1c(F)cccc1F` [Example 170, 2,6-Difluoro-N-{3-[4-fluoro-3-(2-{[3-(1-pyrrolidinylmethyl)-phenyl]amino}-4-pyrimidinyl)pyrazolo[1,5-a]pyridin-2-yl]phenyl}benzamide], in assay [1], the “Activity (Method): pIC50 class” value is listed as “+++ (B) (at least one pIC50 measurement of greater than 7 against either ErbB2 or EGFR)”. Also, the IC50 in assay [2] was 100 to 1000 nM; in assay [3] it was above 1000 nM.

For the compound `O=C(Nc1cccc(-c2nn3ccccc3c2-c2ccnc(Nc3cccc(F)c3)n2)c1)c1c(F)cccc1F` [Example 115, 2,6-Difluoro-N-[3-(3-{2-[(3-fluorophenyl)amino]-4-pyrimidinyl}pyrazolo[1,5-a]pyridin-2-yl)phenyl]benzamide], the “Activity (Method): pIC50 class” value in assay [1] is on record as “++ (B) (at least one pIC50 measurement greater than 6 against either ErbB2 or EGFR but no measurement greater than pIC50 of 7)”. Also, the figures for the IC50 in assay [2] and in assay [3] were below 100 nM and above 1000 nM, respectively.

With `Cc1ccc(F)c(C(=O)Nc2cccc(-c3nn4ccccc4c3-c3ccnc(Nc4ccc(OCCN(C)C)c(Cl)c4)n3)c2)c1F.O=C(O)C(F)(F)F` [Example 186, N-[3-(3-{2-[(3-chloro-4-{[2-(dimethylamino)ethyl]oxy}phenyl)-amino]-4-pyrimidinyl}pyrazolo[1,5-a]pyridin-2-yl)phenyl]-2,6-difluoro-3-methylbenzamide-TFA], the “Activity (Method): pIC50 class” value in assay [1] is given as “+++ (B) (at least one pIC50 measurement of greater than 7 against either ErbB2 or EGFR)”. In addition, the values for the IC50 in assay [2] and in assay [3] were below 100 nM and above 1000 nM, respectively.

Consider `O=C(Nc1cccc(-c2nn3cc(F)ccc3c2-c2ccnc(Nc3cccc(CN4CCCC4)c3)n2)c1)c1c(F)cccc1F` [Example 172, 2,6-Difluoro-N-{3-[6-fluoro-3-(2-{[3-(1-pyrrolidinylmethyl)phenyl]amino}-4-pyrimidinyl)pyrazolo[1,5-a]pyridin-2-yl]phenyl}benzamide], for which the “Activity (Method): pIC50 class” value in assay [1] was “+++ (B) (at least one pIC50 measurement of greater than 7 against either ErbB2 or EGFR)”. Moreover, the IC50 in assay [2] is below 100 nM; in assay [3], above 1000 nM.

The values above are taken from US7812022B2 (GlaxoSmithKline LLC, priority 2004, dated 2010).
